Assay results reported in US5698538A, “Boronic acid and ester inhibitors of thrombin” (The DuPont Merck Pharmaceutical Company, priority 1996, dated 1997).

Assays:
Assay type in all cases: biochemical
human factor VIIa = molecular target: T1, human factor VIIa (Homo sapiens, UniProt P08709); test: Inhibition of human factor VIIa (chromogenic substrate S2288), inhibitory constant Ki; settings: 50 nM human factor VIIa, S2288, pH 7.6, 4 mM CaCl2, 30 minutes; read-out: Ki values for inhibition of Serine Proteases: Factor VIIa
T1 construct: Factor VIIa in the extrinsic pathway; purchased BiosPacific, Emeryville, Calif
T1 sequence (P08709 213-466 limits assumed): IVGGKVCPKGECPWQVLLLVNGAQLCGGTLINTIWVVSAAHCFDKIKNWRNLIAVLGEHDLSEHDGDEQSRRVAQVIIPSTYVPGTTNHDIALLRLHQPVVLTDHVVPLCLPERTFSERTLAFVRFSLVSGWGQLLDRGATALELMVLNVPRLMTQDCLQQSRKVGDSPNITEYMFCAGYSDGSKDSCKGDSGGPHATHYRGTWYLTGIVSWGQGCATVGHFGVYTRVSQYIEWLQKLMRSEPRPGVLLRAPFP
T1 sequence (P08709 61-212 partner limits assumed): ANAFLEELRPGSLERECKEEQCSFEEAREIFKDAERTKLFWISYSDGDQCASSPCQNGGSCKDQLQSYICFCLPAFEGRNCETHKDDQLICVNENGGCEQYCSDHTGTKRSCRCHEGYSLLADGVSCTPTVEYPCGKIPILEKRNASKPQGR
Experimental: (§1) The effectiveness of compounds of the present invention as inhibitors of blood coagulation proteases was determined using purified human proteases and synthetic substrates following procedures similar to those described in Kettner et al. (1990).
(§2) For these assays, the rate of enzymatic (thrombin, Factor Xa, and Factor VIIa) hydrolysis of chromogenic substrates (S2238 (H-D-Phe-Pip-Arg-pNA), S2222, and S2288, respectively; Kabi Pharmacia, Franklin, Ohio.) was measured both in the absence and presence of compounds of the present invention. […] A decrease in the rate of absorbance change at 405 nm in the presence of inhibitor is indicative of enzyme inhibition. The results of this assay are expressed as inhibitory constant, Ki.
(§3) Thrombin and Xa determinations were made in 0.10M sodium phosphate buffer, pH 7.5, containing 0.20M NaCl, and 0.5% PEG 8000. VIIa determinations were made in 0.05M tris buffer, pH 7.6, containing 0.10M NaCl, 4 mM CaCl2, and 0.1% bovine serum albumin. The Michaelis constant, Km, for substrate hydrolysis was determined at 5° C. using the method of Lineweaver and Burk.
(§4) Values of Ki were determined by allowing 0.2-0.5 nM human thrombin or human factor Xa (Enzyme Research Laboratories, South Bend, Ind.), or 50 nM human factor VIIa (BiosPacific, Emeryville, Calif.) react with the substrate (0.20 mM-1 mM) in the presence of inhibitor. Reactions were allowed to go for 30 minutes and the velocities (rate of absorbance change vs time) were measured in the time frame of 25-30 minutes. The following relationship was used to calculate Ki values. [formula] where: vo is the velocity of the control in the absence of inhibitor;
(§5) vs is the velocity in the presence of inhibitor;
(§6) I is the concentration of inhibitor;
(§7) Ki is the dissociation constant of the enzyme: inhibitor complex;
(§8) S is the concentration of substrate;
(§9) Km is the Michaelis constant.

human thrombin = molecular target: T2, human thrombin (Homo sapiens, UniProt P00734); test: Inhibition of human thrombin (chromogenic substrate S2238), inhibitory constant Ki; settings: 0.2-0.5 nM human thrombin, S2238, pH 7.5, 30 minutes; read-out: Ki values for inhibition of Serine Proteases: Thrombin
T2 construct: purchased Enzyme Research Laboratories, South Bend, Ind
Experimental: as §1, §2, §3, §4, §5, §6, §7, §8, §9

human factor Xa = molecular target: T3, human factor Xa (Homo sapiens, UniProt P00742); test: Inhibition of human factor Xa (chromogenic substrate S2222), inhibitory constant Ki; settings: S2222, pH 7.5, 30 minutes, read-out: Ki values for inhibition of Serine Proteases: Factor Xa
T3 construct: purchased Enzyme Research Laboratories, South Bend, Ind
T3 sequence (P00742 235-488 limits assumed): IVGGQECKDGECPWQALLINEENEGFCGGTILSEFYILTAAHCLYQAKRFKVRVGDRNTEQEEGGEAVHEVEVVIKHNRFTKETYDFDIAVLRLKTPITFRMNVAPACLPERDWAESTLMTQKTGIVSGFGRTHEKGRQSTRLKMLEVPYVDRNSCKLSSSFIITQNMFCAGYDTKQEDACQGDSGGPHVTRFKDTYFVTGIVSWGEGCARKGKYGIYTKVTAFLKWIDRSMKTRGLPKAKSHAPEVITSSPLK
T3 sequence (P00742 41-179 partner limits assumed): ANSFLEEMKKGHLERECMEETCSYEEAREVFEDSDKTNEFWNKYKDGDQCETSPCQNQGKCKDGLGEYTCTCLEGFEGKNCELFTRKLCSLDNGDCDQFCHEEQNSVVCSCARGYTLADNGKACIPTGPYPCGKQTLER
Experimental: as §1, §2, §3, §4, §5, §6, §7, §8, §9

SMILES	Ki (human factor VIIa) [nM]	Ki (human thrombin) [nM]	Ki (human factor Xa) [nM]
CC1(C)C2CC3OB([C@H](CCCNC(=N)N)NC(=O)Cn4nc(Cc5ccccc5)nc4Cc4ccccc4)OC3(C)C1C2 (single isomer, unassigned) [Example 967]	< 500	< 500	500 to 50000
CC1(C)C2CC3OB([C@H](CCCNC(=N)N)NC(=O)Cn4nc(-c5cccc([N+](=O)[O-])c5)nc4Cc4ccccc4)OC3(C)C1C2 (single isomer, unassigned) [Example 969]	500 to 50000	< 500	500 to 50000
COCCC[C@H](NC(=O)Cn1nc(CC#N)nc1Cc1ccccc1)B1OC2CC3CC(C3(C)C)C2(C)O1 (single isomer, unassigned) [Example 1352]		< 500	500 to 50000
CC1(C)C2CC3OB([C@H](CCCCN)NC(=O)Cn4nc(COCc5ccccc5)nc4CCc4ccccc4)OC3(C)C1C2 (single isomer, unassigned) [Example 2068]	500 to 50000	< 50000	500 to 50000
CC1(C)C2CC3OB([C@H](CCCNC(=N)N)NC(=O)Cn4nc(Cc5ccccc5)nc4-c4ccccc4)OC3(C)C1C2 (single isomer, unassigned) [Example 2490]	< 500	< 500	500 to 50000
CC1(C)C2CC3OB([C@H](CCCNC(=N)N)NC(=O)Cn4nc(Cc5ccccc5)nc4-c4cccc([N+](=O)[O-])c4)OC3(C)C1C2 (single isomer, unassigned) [Example 2491]	500 to 50000	< 500	< 500
CC(C)(C)OC(=O)Nc1cccc(-c2ccc(C(=O)N[C@@H](CCCNC(=N)N)B3OC4CC5CC(C5(C)C)C4(C)O3)s2)c1 (single isomer, unassigned) [Example 5426]		< 500	< 500
CC(C)(C)OC(=O)Nc1cccc(-c2ccc(C(=O)N[C@@H](CCCNC(=N)N)B3OC4CC5CC(C5(C)C)C4(C)O3)o2)c1 (single isomer, unassigned) [Example 5529]		< 500	< 500
Cc1cc(-c2ccccc2)ccc1C(=O)N[C@@H](CCCNC(=N)N)B(O)O [Example 129]		< 500	< 500
CC(C)(C)NS(=O)(=O)c1ccccc1-c1ccc(C(=O)N[C@@H](CCCNC(=N)N)B2O[C@@H]3C[C@@H]4C[C@@H](C4(C)C)[C@]3(C)O2)c([N+](=O)[O-])c1 [Example 288]	< 500	< 500	
NCCCC[C@H](NC(=O)Cn1ncnc1Cc1ccccc1)B(O)O [Example 977]		< 500	
NCCCC[C@H](NC(=O)Cn1ncnc1CCc1ccccc1)B(O)O [Example 1521]		< 500	
NCCCC[C@H](NC(=O)Cn1nc(CCc2ccccc2)nc1CCc1ccccc1)B(O)O [Example 1557]	500 to 50000	< 500	
NCCCC[C@H](NC(=O)Cn1cnc(CCc2ccccc2)n1)B(O)O [Example 2837]		< 50000	
NCCCC[C@H](NC(=O)c1ccc(-c2ccccc2)nc1)B(O)O [Example 4065]		< 50000	500 to 50000

Next, values leading:

Ki (human factor VIIa) [nM]	Ki (human thrombin) [nM]	Ki (human factor Xa) [nM]	SMILES
	< 500		CC1(C)C2CC3OB([C@H](CCCCN)NC(=O)Cn4ncnc4CCc4ccccc4)OC3(C)C1C2 (single isomer, unassigned) [Example 1431]
500 to 50000	< 50000	500 to 50000	CC1(C)C2CC3OB([C@H](CCCCN)NC(=O)Cn4nc(CO)nc4CCc4ccccc4)OC3(C)C1C2 (single isomer, unassigned) [Example 1459]
500 to 50000	< 500		CC1(C)C2CC3OB([C@H](CCCCN)NC(=O)Cn4nc(CCc5ccccc5)nc4CCc4ccccc4)OC3(C)C1C2 (single isomer, unassigned) [Example 1467]
	< 500		CC1(C)C2CC3OB([C@H](CCCCN)NC(=O)Cn4nc(Cc5nn[nH]n5)nc4Cc4ccccc4)OC3(C)C1C2 (single isomer, unassigned) [Example 2067]
500 to 50000	< 500	500 to 50000	CC1(C)C2CC3OB([C@H](CCCCN)NC(=O)Cn4cnc(-c5ccccc5)n4)OC3(C)C1C2 (single isomer, unassigned) [Example 2073]
500 to 50000	< 500	500 to 50000	Cc1nc(-c2ccccc2)nn1CC(=O)N[C@@H](CCCCN)B1OC2CC3CC(C3(C)C)C2(C)O1 (single isomer, unassigned) [Example 2074]
	< 500		CC1(C)C2CC3OB([C@H](CCCCN)NC(=O)Cn4cnc(Cc5ccccc5)n4)OC3(C)C1C2 (single isomer, unassigned) [Example 2411]
500 to 50000	< 500	500 to 50000	Cc1nc(Cc2ccccc2)nn1CC(=O)N[C@@H](CCCCN)B1OC2CC3CC(C3(C)C)C2(C)O1 (single isomer, unassigned) [Example 2412]
500 to 50000	< 500	500 to 50000	CCCc1nc(Cc2ccccc2)nn1CC(=O)N[C@@H](CCCCN)B1OC2CC3CC(C3(C)C)C2(C)O1 (single isomer, unassigned) [Example 2414]
500 to 50000	< 500	500 to 50000	CSCc1nc(Cc2ccccc2)nn1CC(=O)N[C@@H](CCCCN)B1OC2CC3CC(C3(C)C)C2(C)O1 (single isomer, unassigned) [Example 2416]
500 to 50000	< 500	500 to 50000	CC1(C)C2CC3OB([C@H](CCCCN)NC(=O)Cn4nc(Cc5ccccc5)nc4CC#N)OC3(C)C1C2 (single isomer, unassigned) [Example 2422]
> 500000	< 50000	500 to 50000	CC1(C)C2CC3OB([C@H](CCCCN)NC(=O)Cn4nc(Cc5ccccc5)nc4CC(=O)O)OC3(C)C1C2 (single isomer, unassigned) [Example 2430]
500 to 50000	< 500	500 to 50000	CC1(C)C2CC3OB([C@H](CCCCN)NC(=O)Cn4nc(Cc5ccccc5)nc4CO)OC3(C)C1C2 (single isomer, unassigned) [Example 2439]
500 to 50000	< 500	500 to 50000	CC1(C)C2CC3OB([C@H](CCCCN)NC(=O)Cn4nc(Cc5ccccc5)nc4COCc4ccccc4)OC3(C)C1C2 (single isomer, unassigned) [Example 2440]
	< 500		CC1(C)C2CC3OB([C@H](CCCCN)NC(=O)Cn4cnc(CCc5ccccc5)n4)OC3(C)C1C2 (single isomer, unassigned) [Example 2752]
< 500	< 500	500 to 50000	CC1(C)C2CC3OB([C@H](CCCCN)NC(=O)Cn4nc(CCc5ccccc5)nc4CO)OC3(C)C1C2 (single isomer, unassigned) [Example 2780]
	< 500	500 to 50000	CC1(C)C2CC3OB([C@H](CCCCN)NC(=O)Cc4nc(Cc5ccccc5)n(Cc5ccccc5)n4)OC3(C)C1C2 (single isomer, unassigned) [Example 3349]
	< 500	500 to 50000	CC1(C)[C@@H]2C[C@H]3OB([C@H](CCCNC(=N)N)NC(=O)c4ccc(-c5ccccc5)cc4)O[C@@]3(C)[C@H]1C2 [Example 1, N^1-(4-Phenylbenzoyl)boroarginine (+)-Pinanediol, Bisulfite]
	< 500		Cc1cc(-c2ccccc2)ccc1C(=O)N[C@@H](CCCNC(=N)N)B1O[C@@H]2C[C@@H]3C[C@@H](C3(C)C)[C@]2(C)O1 [Example 29]
	< 500		CC1(C)[C@@H]2C[C@H]3OB([C@H](CCCCN)NC(=O)Cn4ncnc4Cc4ccccc4)O[C@@]3(C)[C@H]1C2 [Example 887]
	< 500		CC1(C)[C@@H]2C[C@H]3OB([C@H](CCCCN)NC(=O)Cn4nc(-c5ccccc5)nc4Cc4ccccc4)O[C@@]3(C)[C@H]1C2 [Example 920]
	< 50000	500 to 50000	CC1(C)[C@@H]2C[C@H]3OB([C@H](CCCCN)NC(=O)c4ccc(-c5ccccc5)nc4)O[C@@]3(C)[C@H]1C2 [Example 4064]
